Experimental data: US9604987B2, “Synthesis of autophagy inducing compound and the uses thereof” (Hong Kong Baptist University, priority 2012, dated 2017)

Key:
N2a cells = experiment: Western blot of autophagy marker LC3-II in N2a cells; format: cell-based, mouse; conditions: for pro-autophagic activity (LC3II protein signal): various concentrations, 12 hrs
Protocol: Native and denatured PAGE and Western blotting analysis. Samples to be run under denaturing conditions were lysed with RIPA lysis buffer (150 mM NaCl, 50 mM Tris-HCl, 0.35% sodium deoxycholate, 1 mM EDTA, 1% NP40, 1 mM PMSF, 5 μg/ml aprotinin, 5 μg/ml leupeptin). Samples for native gels were lysed with detergent-free lysis buffer (50 mM Tris/HCl pH 7.4, 175 mM NaCl, 5 mM EDTA pH 8.0, 1 mM PMSF, 5 μg/ml aprotinin, 5 μg/ml leupeptin), and sheared 5 times through a 28-gauge needle followed by 2 times of sonication for 5 seconds according to previously described protocol. For denaturing, SDS-PAGE was performed using Tris-Glycine SDS running buffer and SDS sample buffer, and for native conditions, native-PAGE was run with detergent-free Tris-Glycine running buffer (BN2007, Invitrogen) and 4× native sample buffer (BN2003, Invitrogen) on a pre-casted native PAGE gel (BN1002BOX, Invitrogen). The proteins on the gels were then transferred to PVDF membrane (RPN303F, GE Healthcare) and processed for immunoblotting. Membranes were blocked with 5% non-fat milk and probed with the appropriate primary and secondary antibodies. The desired bands were visualized using the ECL kit (32106, Pierce). The band density was quantified using the ImageJ program and normalized to that of the control group.
In order to confirm the neuronal autophagy inducing activity of Cory B (its chemical structure is shown in FIG. 1A), mouse neuroblastoma N2a, rat phenochromocytoma PC12 and human neurobastoma SH-SY5Y are treated with different concentrations of Cory B for 24 hours and cell lysates are subjected to western blotting analysis of LC3-II expression which is an autophagy-specific marker.
(§1) To confirm that enhancement of autophagy markers by Cory B is due to induction of autophagy rather than blockage of autophagosome maturation, N2a cells are treated with 25 μM Cory B or 30 μM lysosome inhibitor CQ together with Cory B for 12 hours. Cell lysates are subject to western blot analysis. Data are presented as the mean±SEM from 3 independent experiments (***p<0.001, one-way ANOVA for multiple comparison and Tukey's test as post hoc test). Both LC3-II levels and the number of GFP-LC3 puncta in the Cory B and CQ co-treatment group are much higher than in the CQ-alone treatment group (FIG. 2A-D). Meanwhile, Cory B induces GFP-LC3 puncta formation is abolished by treatment of 5 mM autophagy inhibitor 3-MA for 24 hours (FIG. 2C, D). Cells were fixed in 4% paraformaldehyde and analyzed under a confocal microscope. Data are presented as the mean±SEM of one representative experiment from three independent experiments. (***p<0.001, one-way ANOVA for multiple comparison and Tukey's test as post hoc test). […] Thus, Cory B is indeed an autophagy inducer in neuronal cells.
To compare the activities of oxindole alkaloids on autophagy induction, LC3II expression levels in N2a cells after treatment with Corynoxine B (Cory B) (FIG. 8A), Corynoxine (Cory) (FIG. 8B), Rhynchophylline (Rhy) (FIG. 8C) and Isorhynchophylline (IsoRhy) for 12 hours are examined.
In order to examine the pro-autophagic activities of the synthesized Cory B analogues, neuroblastoma 2a, a neuronal cell line, are treated with various concentrations of the analogues for 12 hrs. The cells are then harvested and lysed with RIPA buffer (150 mM NaCl, 50 mM Tris-HCl pH 7.4, 0.35% sodium deoxycholate, 1 mM EDTA, 1% NP40, 1 mM PMSF, 5 μg/ml aprotinin, 5 μg/ml leupeptin). The sample are lysed on ice with occasional vortex for 30 min, and then centrifuged at 14,000 rpm for 15 min at 4° C. The supernatant are collected and denatured at 95° C. in sample buffer for 5 min. The denatured samples are then separated on 15% SDS-PAGE gels and transferred to PVDF membrane. Membranes are then blocked with 5% non-fat milk and probed with appropriate primary and secondary antibodies. The protein signals of LC3II, marker protein of autophagy, are finally visualized with ECL kit and the protein bands density are quantified by ImageJ program. […]

N2a GFP-LC3 cells = experiment: GFP-LC3 puncta formation in N2a cells constantly expressing GFP-LC3 (confocal); format: cell-based, mouse; conditions: for pro-autophagic activity (GFP-LC3 puncta): 50 μM, 12 hours
Protocol: Cell imaging and puncta counting. Cells were fixed in 3.7% paraformaldehyde (158127, Sigma) for 10 minutes and mounted with FluorSave reagent. Cell images were recorded using a fluorescence microscope or confocal microscope. GFP or RFP Puncta number were counted in cells as described previously. Briefly, the GFP-LC3 or RFP-LC3 puncta in each cell were manually counted, and at least 50 cells were randomly selected for counting in each group. The data presented were from one representative experiment of at least 3 independent experiments.
Further, a neuroblastoma cell line N2a constantly expressing GFP-LC3 (a standard autophagy marker protein) is established. The formation of GFP-LC3 puncta under Cory B treatment is observed under a confocal microscope. Data is presented as the mean±SEM of one representative experiment from three independent experiments. (*p<0.05, ***p<0.001, one-way ANOVA for multiple comparison and Tukey's test as post hoc test).
as §1
In order to observe the pro-autophagic activity of CB6 and CB8 intuitively, N2a cells constantly expressing GFP-LC3 are treated with 50 μM Cory B, CB6 and CB8 for 12 hours respectively. The cells are than fixed with 4% paraformaldehyde (Sigma, 158127) for 10 minutes, and then mounted with VECTASHIELD hardset anti-fade mounting medium. The mounted samples are then subjected to confocal microscopy analysis.
After designated treatments, N2a cells constantly expressing GFP-LC3 were fixed with 4% paraformaldehyde (Sigma, 158127) for 10 min, and then mounted with VECTASHIELD hardset antifade mounting medium. The mounted samples were then subjected to confocal microscopy analysis.

SMILES: CCCN1C(=O)[C@]2(CCN3C[C@@H](CC)[C@@H](/C(=C\OC)C(=O)OC)C[C@H]32)c2ccccc21 [CB6]
- pro-autophagic activity (LC3II protein signal) (N2a cells; N2a): novel autophagy inducer
- pro-autophagic activity (GFP-LC3 puncta) (N2a GFP-LC3 cells): confirmed to be autophagy inducers

SMILES: C=CCN1C(=O)[C@]2(CCN3C[C@@H](CC)[C@@H](/C(=C\OC)C(=O)OC)C[C@H]32)c2ccccc21 [CB8]
- pro-autophagic activity (LC3II protein signal) (N2a cells; N2a): novel autophagy inducer
- pro-autophagic activity (GFP-LC3 puncta) (N2a GFP-LC3 cells): confirmed to be autophagy inducers

SMILES: CC[C@@H]1CN2CC[C@]3(C(=O)Nc4ccccc43)C2C[C@@H]1C(=COC)C(=O)OC (stereo partly drawn) [Cory B, Corynoxine B]
- LC3-II levels and number of GFP-LC3 puncta, co-treatment with CQ versus CQ alone (N2a cells; 25 μM Cory B + 30 μM CQ, 12 hours): much higher
- LC3-II levels (N2a cells; N2a, 0-25 μM, 24 hours): increases levels of LC3-II
- autophagy induction (LC3II expression level) (N2a cells; N2a, oxindole alkaloids, 12 hours): significantly activate autophagy
- GFP-LC3 puncta formation in presence of autophagy inhibitor 3-MA (N2a GFP-LC3 cells; 5 mM 3-MA, 24 hours): abolished
- GFP-LC3 puncta formation (N2a GFP-LC3 cells; N2a GFP-LC3 cells, Cory B treatment): induces massive GFP-LC3 puncta formation
